System: Escherichia coli
Assay: Tested for inhibition of puromycin reaction and reported as equilibrium constant derived from primary and secondary kinetic plots for the inhibition of peptide bond formation
Format: functional

Row | Structure (SMILES) | Ki [nM]
1 | NC(Cc1ccccc1)C(=O)NCC(=O)NC(CO)C(O)c1ccc([N+](=O)[O-])cc1 (stereo unspecified) | 1500
2 | NS(=O)(=O)c1ccc([C@@H](O)[C@@H](CO)NC(=O)C(Cl)Cl)cc1 [TEVENEL] | 1700
3 | NC(Cc1ccccc1)C(=O)NC(CO)C(O)c1ccc([N+](=O)[O-])cc1 (stereo unspecified) | 18000
4 | NCC(=O)NC(CO)C(O)c1ccc([N+](=O)[O-])cc1 (stereo unspecified) | 5500
5 | CS(=O)(=O)c1ccc([C@@H](O)[C@@H](CO)NC(=O)C(Cl)Cl)cc1 [THIAMPHENICOL] | 400
6 | O=C(N[C@H](CO)[C@H](O)c1ccc([N+](=O)[O-])cc1)C(Cl)Cl [CHLORAMPHENICOL] | 700
